Reference: publication PMC11328603 (Journal of Enzyme Inhibition and Medicinal Chemistry, 2024)

Biological target: Escherichia coli β-glucuronidase (EcGUS) (Escherichia coli, UniProt P05804)
Test: PNPG hydrolysis assay, Lineweaver-Burk kinetics
Format: biochemical

Chain of Escherichia coli β-glucuronidase (EcGUS) (P05804 whole entry): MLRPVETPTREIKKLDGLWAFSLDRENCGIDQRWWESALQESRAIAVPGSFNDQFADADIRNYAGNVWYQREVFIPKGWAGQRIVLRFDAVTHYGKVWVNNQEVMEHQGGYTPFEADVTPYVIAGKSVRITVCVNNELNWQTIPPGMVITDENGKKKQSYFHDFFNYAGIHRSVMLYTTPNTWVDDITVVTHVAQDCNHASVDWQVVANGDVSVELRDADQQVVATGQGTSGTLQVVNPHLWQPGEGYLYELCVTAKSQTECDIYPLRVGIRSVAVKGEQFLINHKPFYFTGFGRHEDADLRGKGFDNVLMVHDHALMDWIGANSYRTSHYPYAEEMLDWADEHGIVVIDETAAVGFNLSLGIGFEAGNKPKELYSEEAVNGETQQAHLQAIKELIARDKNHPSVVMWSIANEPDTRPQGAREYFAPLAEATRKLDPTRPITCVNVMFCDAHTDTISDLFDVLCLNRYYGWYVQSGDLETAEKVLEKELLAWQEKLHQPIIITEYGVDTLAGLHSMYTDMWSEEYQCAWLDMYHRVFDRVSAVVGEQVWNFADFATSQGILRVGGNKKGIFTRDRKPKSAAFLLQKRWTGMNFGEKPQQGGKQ

`Clc1ccc2c(c1)C(N1CCNCC1)=Nc1ccccc1O2` [AMX, amoxapine] was tested, and the “PNPG hydrolysis assay, Lineweaver-Burk kinetics” value was “both AMX and E-9 acted as uncompetitive inhibitors against EcGUS”.
